Data as given in paper PMC3573010, “Bacillus megaterium Has Both a Functional BluB Protein Required for DMB Synthesis and a Related Flavoprotein That Forms a Stable Radical Species” (PLoS ONE, 2013).

Key:
BluB(Bm) = target: T1, BluB(Bm) (Priestia megaterium, UniProt D5DCL0); assay: HPLC of DMB formed; type: biochemical; conditions: O2 required; […] Tris-HCl pH […] NaCl, […] DTT; room temperature; FMN reduced in situ by NADH
T1 construct: native N-terminus MNSFTN by printed primer
T1 sequence (D5DCL0 1-217): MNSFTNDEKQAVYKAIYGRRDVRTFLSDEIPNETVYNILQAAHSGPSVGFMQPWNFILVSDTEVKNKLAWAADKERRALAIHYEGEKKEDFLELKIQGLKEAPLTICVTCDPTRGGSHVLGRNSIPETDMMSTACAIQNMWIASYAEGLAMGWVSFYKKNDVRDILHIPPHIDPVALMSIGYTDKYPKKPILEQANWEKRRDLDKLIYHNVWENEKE

BluB(Rc) = target: T2, BluB(Rc) (Rhodobacter capsulatus, UniProt D5AV14); assay: HPLC of DMB formed; stopped-flow detection of 4a-peroxyflavin at […] nm; type: biochemical; conditions: O2 required; 20 mM Tris-HCl pH 8.0, 100 mM NaCl; FMN reduced by NADH (HPLC) or dithionite (stopped-flow)
T2 construct: N-terminal His6 tag with thrombin site (pET14b), expressed in E. coli BL21star(DE3)pLysS, 25 kDa on SDS-PAGE; native N-terminus MNFEQT by printed primer

CbiY(Bm) = target: T3, CbiY(Bm) (Priestia megaterium, UniProt D5DG39); assay: UV-visible spectrum of purified holoprotein; heat release, HPLC and mass spectrometry; type: binding; conditions: non-covalently bound, co-purified
T3 construct: native N-terminus MTIISQLK by primer
T3 sequence (D5DG39 1-189): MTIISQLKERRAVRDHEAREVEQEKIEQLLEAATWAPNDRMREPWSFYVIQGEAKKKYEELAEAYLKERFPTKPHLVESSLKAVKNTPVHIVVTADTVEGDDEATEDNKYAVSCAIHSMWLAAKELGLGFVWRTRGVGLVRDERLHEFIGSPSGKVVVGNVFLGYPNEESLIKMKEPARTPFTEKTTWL

T2 sequence (D5AV14 whole entry): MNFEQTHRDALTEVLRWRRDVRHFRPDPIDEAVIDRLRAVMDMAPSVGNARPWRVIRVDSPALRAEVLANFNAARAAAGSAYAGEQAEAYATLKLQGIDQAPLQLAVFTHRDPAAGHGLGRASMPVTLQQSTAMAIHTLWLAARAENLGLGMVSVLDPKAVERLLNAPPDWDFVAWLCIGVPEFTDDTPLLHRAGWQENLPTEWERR

SMILES | HPLC of DMB formed (BluB(Bm)) | HPLC of DMB formed; stopped-flow detection of 4a-peroxyflavin at 380 nm (BluB(Rc)) | UV-visible spectrum of purified holoprotein; heat release, HPLC and mass spectro (CbiY(Bm))
Cc1cc2c(cc1C)N(C[C@H](O)[C@H](O)[C@H](O)COP(=O)(O)O)c1[nH]c(=O)[nH]c(=O)c1N2 [FMNH2] | DMB formation was observed in reaction mixtures containing either BluB(Rc) or BluB(Bm) | In the case of the BluB(Rc) enzyme, rapid formation of a peroxyflavin intermediate | –
Cc1cc2nc3c(=O)[nH]c(=O)nc-3n(C[C@H](O)[C@H](O)[C@H](O)COP(=O)(O)O)c2cc1C [FMN] | – | – | The flavin cofactor could be removed from the holoenzyme by denaturing the protein
